# Assay results published in patent US10104889B2 (priority 2011, dated 2018).
# Test system: Candidatus ‘Liberibacter asiaticus’
# Assay type: in vivo
# Settings: 1 μM, all tested variants, monthly until sixth month, FIG. 6
compound,measurement,value
"C[C@@H]1CC[C@@]2(OC1)O[C@H]1C[C@H]3[C@@H]4CC[C@H]5CC(O)CC[C@]5(C)[C@H]4OC(=O)C[C@]3(C)[C@H]1[C@@H]2C (stereo partly drawn) [brassinosteroid analogue, (25R)-3-hydroxy-C-homo-11-oxa-5-espirostan-12-one]","bacterial reduction at application frequencies 1, 2 and 4 times per month",bacterial reduction was observed
